What was measured:
[1] = Preliminary salt screen; format: physicochemical; settings: equi-millimolar base and acid, 2-propanol or acetonitrile, alternative solvents
Procedure: Test tubes (4 mL), provided with magnetic stir bars, were charged with equi-milimolar amounts of (R)-3-((E)-2-(pyrrolidin-3-yl)vinyl)-5-(tetrahydropyran-4-yloxy)pyridine base and the acid of interest (neat) and dissolved with 500 μL of either 2-propanol or acetonitrile with the aid of heat.
If no precipitation occurred, the solvent was evaporated under a nitrogen stream with moderate heating and an alternative solvent was tried. Alternative solvents included acetone, ethyl acetate, isopropyl acetate, absolute ethanol, acetonitrile, hexane, tert-butanol, tert-butyl acetate, and blends thereof.
The use of alcohols was avoided in the case of sulfonic acids.

[2] = test system: panel of 65 receptors; experiment: Multiple receptor screening assay; format: binding; settings: single concentration of 10 μM
Procedure: (R)-3-((E)-2-(Pyrrolidin-3-yl)vinyl)-5-(tetrahydropyran-4-yloxy)pyridine or a salt thereof was tested for selectivity against a panel of 65 receptors.

[3] = test system: normal rats; experiment: Novel object recognition (NOR) task; format: in vivo, rat; settings: for NOR time after dosing with statistically significant effect (out to / up to): 0.004 μmol/kg oral (FIG. 2)
Procedure: Memory was assessed by using a three-trial novel object recognition test (Luine et al., Pharm. Biochem. Behav. 74, 213-220 (2002)). On the first day (exploratory trial), rats were allowed to explore an open arena (44.5×44.5×30.5 cm) for 6 min. On the second day (acquisition trial), rats were allowed to explore the same arena in the presence of two identical objects (both object A) for 3 min. On the third day (retention or recall trial), performance was evaluated by allowing the same animal to re-explore the arena for 3 min in the presence of two different objects: the familiar object A and a novel object B. An inter-trial interval of 24 h was imposed between the three NOR trials. Recognition memory was assessed by comparing the time spent exploring a novel (object B) versus a familiar (object A) object during the recall trial. Recognition index was assessed for each animal and expressed as a ratio ((time B/time A+time B)×100).
(R)-3-((E)-2-(Pyrrolidin-3-yl)vinyl)-5-(tetrahydropyran-4-yloxy)pyridine or a salt thereof improved long-term visual episodic/declarative memory as assessed by novel object recognition (NOR) task following oral dosing in normal rats. […] In the two “recall only” sessions; subset of animals were orally dosed with water on day 1 (i.e., exploratory session) and day 2 (i.e., acquisition session) and then orally dosed either with 1.1 μmol/kg (R)-3-((E)-2-(pyrrolidin-3-yl)vinyl)-5-(tetrahydropyran-4-yloxy)pyridine or a salt thereof (left panel) or 0.04 μmol/kg (right panel) on day 3 (i.e., recall session). […] In the Figure, the dashed line at 65% denotes subjective criteria for biological cognitive enhancing activity. *P<0.05.
(R)-3-((E)-2-(Pyrrolidin-3-yl)vinyl)-5-(tetrahydropyran-4-yloxy)pyridine or a salt thereof was evaluated for its duration of effect in the NOR task in normal rats. […] In the Figure, the dashed line at 65% denotes subjective criteria for biological cognitive enhancing activity (*P<0.05).

[4] = design: species or system human
Text: Therefore any variation of (R)-3-((E)-2-(pyrrolidin-3-yl)vinyl)-5-(tetrahydropyran-4-yloxy)pyridine or a salt thereof metabolism in human due to CYP polymorphism is expected to be less than 2 fold due to the significant renal clearance and low hepatic clearance.

Molecule	Result of preliminary salt screen (physical form obtained) [1]	further results
Cl [Hydrochloric]	red oil	–
L-Tartaric	Oil	–
Fumaric	oil	–
O=C(O)CCC(=O)O [Succinic]	red oil	–
O=C(O)CC(O)(CC(=O)O)C(=O)O [Citric]	tacky gum	–
CC1(C)[C@@H](C(=O)O)CC[C@@]1(C)C(=O)O [(1 R,3S)-(+)-Camphoric]	oil	–
O=C(O)c1ccc2ccccc2c1O [1-Hydroxy-2-naphthoic (Xinafoic)]	brown gum	–
CC1(C)[C@@H]2CC[C@@]1(CS(=O)(=O)O)C(=O)C2 [(1 S)-(+)-1 O-Camphorsulfonic]	oil	–
O=C[C@H](O)[C@@H](O)[C@H](O)[C@H](O)C(=O)O [D-glucuronic]	brown gum	–
COc1ccc(C(=O)O)cc1 [4-Methoxybenzoic]	Oil	–
C(=C\[C@H]1CCNC1)/c1cncc(OC2CCOCC2)c1 [Compound A, (R)-3-((E)-2-(pyrrolidin-3-yl)vinyl)-5-(tetrahydropyran-4-yloxy)pyridine]	–	Multiple receptor screening assay, receptors hit [2]: only to neuronal nicotinic receptors; Multiple receptor screening assay, receptors hit ([2]; listed as (R)-3-(2-(pyrrolidin-3-yl)vinyl)-5-((tetrahydro-2H-pyran-4-yl)oxy)pyridine): Only nicotinic; NOR time after dosing with statistically significant effect (out to / up to) [3]: ≤ 8 h; NOR time after dosing with statistically significant effect (out to / up to) ([3]; listed as (R)-3-((E)-2-(pyrrolidin-3-yl)vinyl)-5-(tetrahydropyran-4-yloxy)pyridine): up to 8 h; NOR time after dosing with statistically significant effect (out to / up to) ([3]; listed as Formula I): ≤ 8 h; NOR doses with statistically significant effect (as low as) ([3]; FIG. 1): ≥ 0.004 µM/kg; NOR minimum effect dose (MED) level ([3]; follow-up NOR study, oral, rats): 0.004 µmol/kg; NOR recognition index, recall only sessions ([3]; single oral administration on day 3, 1.1 μmol/kg or 0.04 μmol/kg): recognition indexes significantly above controls; variation of metabolism due to CYP polymorphism [4]: less than 2 fold; renal clearance contribution to total clearance ([4]; human): more than 50%
CS(=O)(=O)O [Methanesulfonic]	Oil	–
O=C(O)c1ccc(O)cc1 [4-Hydroxybenzoic]	tacky gum	–
O=C(O)/C=C\C(=O)O [Maleic]	Oil	–
C(=C\[C@H]1CCNC1)/c1cncc(OC2CCOCC2)c1.O=C(O)C[C@H](O)C(=O)O [(R)-3-((E)-2-(pyrrolidin-3-yl)vinyl)-5-(tetrahydropyran-4-yloxy)pyridine mono-L-malate]	Crystals	–
O=C(O)CC(=O)O [Malonic]	Oil	–
O=C(O)CCCCC(=O)O [Adipic]	oil	–
Cc1ccc(S(=O)(=O)O)cc1.O [p-Toluenesulfonic.H20]	Oil	–
CC(=O)Nc1ccc(C(=O)O)cc1 [4-Acetamidobenzoic]	oil	–
